This note sets out measurements from patent US10457685B2, “[1,2,3]triazolo[4,5-D]pyrimidine derivatives with affinity for the type-2 cannabinoid receptor” (Hoffmann-La Roche Inc., priority 2016, dated 2019).

pKi: −log10 of the molar value. Where only a bound is given, the exact number is not on record here.

Experiment [1] has as its target human CB2 receptor (CNR2) (Homo sapiens (Human), UniProt P34972). In words: Radioligand binding assay ([3H]-CP-55,940), membranes of HEK cells expressing human CNR2. Particulars: 2.6 nM [3H]-CP-55,940, HEK cell membranes, 1 h at 30° C. The protocol: (§1) Radioligand Binding Assay
(§2) The affinity of the compounds of the invention for cannabinoid receptors was determined using recommended amounts of membrane preparations (PerkinElmer) of human embryonic kidney (HEK) cells expressing the human CNR1 or CNR2 receptors in conjunction with 1.5 or 2.6 nM [3H]-CP-55,940 (Perkin Elmer) as radioligand, respectively. Binding was performed in binding buffer (50 mM Tris, 5 mM MgCl2, 2.5 mM EDTA, and 0.5% (wt/vol) fatty acid free BSA, pH 7.4 for CB1 receptor and 50 mM Tris, 5 mM MgCl2, 2.5 mM EGTA, and 0.1% (wt/vol) fatty acid free BSA, pH 7.4 for CB2 receptor) in a total volume of 0.2 mL for 1 h at 30° C. shaking. The reaction was terminated by rapid filtration through microfiltration plates coated with 0.5% polyethylenimine (UniFilter GF/B filter plate; Packard). Bound radioactivity was analyzed for Ki using nonlinear regression analysis (Activity Base, ID Business Solution, Limited), with the Kd values for [^3H]CP55,940 determined from saturation experiments.

The target of experiment [2] is human CB1 receptor (CNR1) (Homo sapiens (Human), UniProt P21554). As to the kind of experiment: Radioligand binding assay ([3H]-CP-55,940), membranes of HEK cells expressing human CNR1. The settings on record: 1.5 nM [3H]-CP-55,940, HEK cell membranes, 1 h at 30° C. The protocol:
as §1, §2

Chain of human CB1 receptor (CNR1) (P21554 whole entry): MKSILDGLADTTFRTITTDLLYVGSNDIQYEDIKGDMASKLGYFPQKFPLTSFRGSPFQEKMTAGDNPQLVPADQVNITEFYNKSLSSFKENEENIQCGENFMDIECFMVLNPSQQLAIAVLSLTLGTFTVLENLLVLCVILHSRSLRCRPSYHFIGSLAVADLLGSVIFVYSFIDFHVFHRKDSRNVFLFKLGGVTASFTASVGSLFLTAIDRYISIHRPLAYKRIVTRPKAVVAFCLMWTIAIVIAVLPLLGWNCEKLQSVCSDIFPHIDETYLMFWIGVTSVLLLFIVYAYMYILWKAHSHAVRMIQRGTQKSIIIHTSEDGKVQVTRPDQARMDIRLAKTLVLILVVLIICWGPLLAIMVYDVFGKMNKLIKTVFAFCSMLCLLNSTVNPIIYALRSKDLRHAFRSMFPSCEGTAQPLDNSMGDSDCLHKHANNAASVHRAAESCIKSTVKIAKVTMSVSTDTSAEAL
Chain of human CB2 receptor (CNR2) (P34972 whole entry): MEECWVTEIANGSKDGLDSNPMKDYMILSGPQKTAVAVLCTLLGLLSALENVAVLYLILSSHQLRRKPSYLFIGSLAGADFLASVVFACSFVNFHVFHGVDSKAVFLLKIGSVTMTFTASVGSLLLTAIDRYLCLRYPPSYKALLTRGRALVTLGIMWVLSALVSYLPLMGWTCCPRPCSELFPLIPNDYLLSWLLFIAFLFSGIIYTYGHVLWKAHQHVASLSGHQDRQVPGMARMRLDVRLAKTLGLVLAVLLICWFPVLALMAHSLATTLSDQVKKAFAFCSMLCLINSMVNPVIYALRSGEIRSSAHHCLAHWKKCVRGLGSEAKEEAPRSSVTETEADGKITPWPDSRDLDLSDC

As usually defined, the pKi is the Ki on a negative log10 scale, so that one unit is a factor of ten. As to “5-tert-butyl-7-(3,3-Difluoropyrrolidin-1-yl)-3-[[2-(pyridin-2-yldisulfanyl)phenyl]methyl]triazolo[4,5-d]pyrimidine [Example 37]”, the pKi was 6.27 in experiment [1] and 5.59 in experiment [2].

As for `Cc1nonc1Cn1nnc2c(N3CC[C@H](S)C3)nc(C(C)(C)C)nc21` (single isomer, unassigned) [Example 10], the pKi in experiment [1] was 6.82; in experiment [2], < 5.00.

As to `CC(C)(C)c1nc(N2CC[C@H](S)C2)c2nnn(Cc3ccccc3Cl)c2n1` (single isomer, unassigned) [Example 12], the figures for the pKi in experiment [1] and in experiment [2] were 5.60 and 5.55, respectively.

For `CC(C)(C)c1nc(N2CC[C@@H](S)C2)c2nnn(Cc3ccccc3Cl)c2n1` (single isomer, unassigned) [Example 13], the pKi in experiment [1] was 5.81; in experiment [2], < 5.00.

Regarding `CC(C)(C)c1nc(N2CC[C@H](O)C2)c2nnn(Cc3ccccc3S(=O)(=O)F)c2n1` [Example 1, 2-[[5-tert-Butyl-7-[(3S)-3-hydroxypyrrolidin-1-yl]triazolo[4,5-d]pyrimidin-3-yl]methyl]benzenesulfonyl fluoride], the results for the pKi in experiment [1] and in experiment [2] were 7.80 and < 5.00, respectively.

Turning to `CC(C)(C)c1nc(N2CCC(F)(F)C2)c2nnn(Cc3ccccc3CS(=O)(=O)F)c2n1` [Example 2, (2-{[5-tert-Butyl-7-(3,3-difluoropyrrolidin-1-yl)-3H-[1,2,3]triazolo[4,5-d]pyrimidin-3-yl]methyl}phenyl)methanesulfonyl fluoride], the pKi in experiment [1] is 7.96; in experiment [2], 5.71.

With `CC(C)(C)c1nc(N2CC[C@H](O)C2)c2nnn(Cc3ccccc3CS(=O)(=O)F)c2n1` [Example 3, [2-({5-tert-Butyl-7-[(3S)-3-hydroxypyrrolidin-1-yl]-3H-[1,2,3]1 triazolo[4,5-d]pyrimidin-3-yl}methyl)phenyl]methanesulfonyl fluoride], the pKi in experiment [1] was 6.55; in experiment [2], < 5.00.

Take `CC(C)(C)c1nc(N2CCC(F)(F)C2)c2nnn(Cc3ccccc3CN=C=S)c2n1` [Example 4, 5-tert-Butyl-7-(3,3-difluoropyrrolidin-1-yl)-3-{[2-(isothiocyanatomethyl)phenyl]methyl}-3H-[1,2,3]triazolo[4,5-d]pyrimidine]: the pKi in experiment [1] is 7.06; in experiment [2], 5.42.

Consider `CC(C)(C)c1nc(N2CC[C@H](O)C2)c2nnn(Cc3ccccc3CN=C=S)c2n1` [Example 5, (3S)-1-(5-tert-Butyl-3-{[2-(isothiocyanatomethyl)phenyl]methyl}-3H-[1,2,3]triazolo[4,5-d]pyrimidin-7-yl)pyrrolidin-3-ol], for which the pKi in experiment [1] is 7.04; in experiment [2], < 5.00.

For `CC(C)(C)c1nc(N2CCC(F)(F)C2)c2nnn(Cc3ccccc3N=C=S)c2n1` [Example 6, 5-tert-Butyl-7-(3,3-difluoropyrrolidin-1-yl)-3-[(2-isothiocyanatophenyl)methyl]-3H-[1,2,3]triazolo[4,5-d]pyrimidine], the pKi in experiment [1] is 6.52; in experiment [2], 5.27.

`CC(C)(C)c1nc(N2CCC(F)(F)C2)c2nnn(Cc3ccccc3S(=O)(=O)F)c2n1` [Example 7, 2-{[5-tert-Butyl-7-(3,3-difluoropyrrolidin-1-yl)-3H-[1,2,3]triazolo[4,5-d]pyrimidin-3-yl]methyl}benzene-1-sulfonyl fluoride]: the pKi in experiment [1] is 8.22; in experiment [2], 6.03.

Consider `CC(C)(C)c1nc(N2CCC(S)C2)c2nnn(Cc3ccccc3Cl)c2n1` (stereo not drawn) [Example 8, 1-{5-tert-Butyl-3-[(2-chlorophenyl)methyl]-3H-[1,2,3]triazolo[4,5-d]pyrimidin-7-yl}pyrrolidine-3-thiol], for which the values for the pKi in experiment [1] and in experiment [2] were 7.07 and 5.83, respectively.

As for `CC(C)(C)c1nc(N2CC(S)C2)c2nnn(Cc3ccccc3Cl)c2n1` [Example 9, 1-{5-tert-Butyl-3-[(2-chlorophenyl)methyl]-3H-[1,2,3]triazolo[4,5-d]pyrimidin-7-yl}azetidine-3-thiol], the values for the pKi in experiment [1] and in experiment [2] were 6.42 and < 5.00, respectively.

For the compound `Cc1nonc1Cn1nnc2c(N3CCC(N=[N+]=[N-])C3)nc(C(C)(C)C)nc21` (stereo not drawn) [Example 14, 7-(3-Azidopyrrolidin-1-yl)-5-tert-butyl-3-[(4-methyl-1,2,5-oxadiazol-3-yl)methyl]-3H-[1,2,3]triazolo[4,5-d]pyrimidine], the values for the pKi in experiment [1] and in experiment [2] were 6.86 and < 5.00, respectively.

With `Cc1nonc1Cn1nnc2c(N3CCC(N=C=S)C3)nc(C(C)(C)C)nc21` (stereo not drawn) [Example 16, 5-tert-Butyl-7-(3-isothiocyanatopyrrolidin-1-yl)-3-[(4-methyl-1,2,5-oxadiazol-3-yl)methyl]-3H-[1,2,3]triazolo[4,5-d]pyrimidine], the pKi is 6.37 in experiment [1] and < 5.00 in experiment [2].

On to `CC(C)(C)c1nc(N2CCC(N=[N+]=[N-])C2)c2nnn(Cc3ccccc3Cl)c2n1` (stereo not drawn) [Example 17, 7-(3-Azidopyrrolidin-1-yl)-5-tert-butyl-3-[(2-chlorophenyl)methyl]-3H-[1,2,3]triazolo[4,5-d]pyrimidine], for which the pKi was 6.68 in experiment [1] and 5.64 in experiment [2].

Turning to `CSSC1CCN(c2nc(C(F)(F)c3ccccc3)nc3c2nnn3Cc2nonc2C)C1` (stereo not drawn) [Example 18, 5-[Difluoro(phenyl)methyl]-7-[3-(methyldisulfanyl)pyrrolidin-1-yl]-3-[(4-methyl-1,2,5-oxadiazol-3-yl)methyl]-3H-[1,2,3]triazolo[4,5-d]pyrimidine], the figures for the pKi in experiment [1] and in experiment [2] were 5.99 and < 5.00, respectively.

For the compound `CSSC1CCN(c2nc(C(F)(F)c3ccccc3)nc3c2nnn3Cc2ccccc2Cl)C1` (stereo not drawn) [Example 19, 3-[(2-Chlorophenyl)methyl]-5-[difluoro(phenyl)methyl]-7-[3-(methyldisulfanyl)pyrrolidin-1-yl]-3H-[1,2,3]triazolo[4,5-d]pyrimidine], the pKi in experiment [1] was 5.86; in experiment [2] it was < 5.00.

Regarding `Cc1nonc1Cn1nnc2c(N3CCC(N=[N+]=[N-])C3)nc(C(F)(F)c3ccccc3)nc21` (stereo not drawn) [Example 20, 7-(3-Azidopyrrolidin-1-yl)-5-[difluoro(phenyl)methyl]-3-[(4-methyl-1,2,5-oxadiazol-3-yl)methyl]-3H-[1,2,3]triazolo[4,5-d]pyrimidine], the pKi is 5.88 in experiment [1] and < 5.00 in experiment [2].

In the case of `[N-]=[N+]=NC1CCN(c2nc(C(F)(F)c3ccccc3)nc3c2nnn3Cc2ccccc2Cl)C1` (stereo not drawn) [Example 21, 7-(3-Azidopyrrolidin-1-yl)-3-[(2-chlorophenyl)methyl]-5-[difluoro(phenyl)methyl]-3H-[1,2,3]triazolo[4,5-d]pyrimidine], the values for the pKi in experiment [1] and in experiment [2] were 6.14 and 5.61, respectively.

Take `FC(F)(c1ccccc1)c1nc(N2CCC(N=C=S)C2)c2nnn(Cc3ccccc3Cl)c2n1` (stereo not drawn) [Example 22, 3-[(2-Chlorophenyl)methyl]-5-[difluoro(phenyl)methyl]-7-(3-isothiocyanatopyrrolidin-1-yl)-3H-[1,2,3]triazolo[4,5-d]pyrimidine]: the pKi in experiment [1] is 5.91; in experiment [2], 5.19.

With `Cc1nonc1Cn1nnc2c(N3CCC(N=C=S)C3)nc(C(F)(F)c3ccccc3)nc21` (stereo not drawn) [Example 23, 5-[Difluoro(phenyl)methyl]-7-(3-isothiocyanatopyrrolidin-1-yl)-3-[(4-methyl-1,2,5-oxadiazol-3-yl)methyl]-3H-[1,2,3]triazolo[4,5-d]pyrimidine], the pKi in experiment [1] and in experiment [2] was 5.84 in each case.

With `O=S(=O)(F)c1ccccc1Cn1nnc2c(N3CC[C@H](O)C3)nc(C(F)(F)c3ccccc3)nc21` [Example 24, 2-[[5-[Difluoro(phenyl)methyl]-7-[(3S)-3-hydroxypyrrolidin-1-yl]triazolo[4,5-d]pyrimidin-3-yl]methyl]benzenesulfonyl fluoride], the pKi in experiment [1] is 5.95; in experiment [2], 5.48.

Turning to `CC(C)(C)c1nc(N2CCC(F)(F)C2)c2nnn(Cc3ccccc3CSSCCO)c2n1` [Example 25, 2-[[2-[[5-tert-Butyl-7-(3,3-difluoropyrrolidin-1-yl)triazolo[4,5-d]pyrimidin-3-yl]methyl]phenyl]methyldisulfanyl]ethanol], the pKi in experiment [1] was 8.05; in experiment [2] it was 6.68.

As for `O=S(=O)(F)c1ccccc1Cn1nnc2c(N3CCC(F)(F)C3)nc(C(F)(F)c3ccccc3)nc21` [Example 26, 2-[[5-[Difluoro(phenyl)methyl]-7-(3,3-difluoropyrrolidin-1-yl)triazolo[4,5-d]pyrimidin-3-yl]methyl]benzenesulfonyl fluoride], the pKi is 6.20 in experiment [1] and < 5.00 in experiment [2].

As to `FC1(F)CCN(c2nc(C(F)(F)c3ccccc3)nc3c2nnn3Cc2ccccc2CCSSc2ccccn2)C1` [Example 27, 5-[Difluoro(phenyl)methyl]-7-(3,3-difluoropyrrolidin-1-yl)-3-[[2-[2-(pyridin-2-yldisulfanyl)ethyl]phenyl]methyl]triazolo[4,5-d]pyrimidine], the pKi was 6.58 in experiment [1] and 5.52 in experiment [2].

`OCCSSCCc1ccccc1Cn1nnc2c(N3CCC(F)(F)C3)nc(C(F)(F)c3ccccc3)nc21` [Example 28, 2-[2-[2-[[5-[Difluoro(phenyl)methyl]-7-(3,3-difluoropyrrolidin-1-yl)triazolo[4,5-d]pyrimidin-3-yl]methyl]phenyl]ethyldisulfanyl]ethanol]: the figures for the pKi in experiment [1] and in experiment [2] were 6.86 and 5.97, respectively.
